{"source": "paper PMC9025555", "about": "“Chiral Recognition R- and RS- of New Antifungal: Complexation/Solubilization/Dissolution Thermodynamics and Permeability Assay” (Pharmaceutics, 2022)", "key": {"[1]": {"test": "Phase solubility study (shake-flask) in buffers with 2-HP-β-CD", "conditions": "for order of the solubility: compared with reported FCZ and L-173", "protocol": "An excess amount of the substance was placed in the glass screw-capped vials with the solvent. The vials were stirred in an air thermostat for a certain period of time (a period of 3 days was estimated to be enough for reaching the equilibrium between the solid and the solvent). Then, the saturated solutions were kept in a thermostat in mild conditions no less than 12 h and thereafter centrifuged at a fixed temperature (Biofuge pico, Thermo Electron LED GmbH, Langenselbold, Germany) for 10 min at 12,000 rpm. […] The experimental results were reported as an average of at least three replicated experiments. Temperature uncertainty was ±0.1 K. The sensitivity of UV spectroscopic determinations was characterized by the values of the limit of detection (LOD)/limit of quantification (LOQ)."}, "in vitro": {"test": "in vitro", "type": "in vitro ADME", "protocol": "Permeability coefficients of RS-186 and R-98 were measured through the PermeaPad barrier (PHABIOC, Germany, Espelkamp, www.permeapad.com, accessed on 20 May 2021) of an effective surface area of 0.785 cm^2 in a vertical type of Franz diffusion cell (PermeGear, Inc., Hellertown, PA, USA) with 7 mL volume. PermeaPad is a biomimetic membrane proposed by di Cagno and Bauer-Brandl for the fast screening of the permeability of the marketed drugs and drug-like compounds. In brief, the barrier was mounted between the donor and receptor chambers. The donor chamber was filled with a stock solution of the investigated substance in buffer solution at pH 2.0 or pH 7.4 and was stirred vigorously during the permeability experiment. The receptor compartment contained 1 mL of the respective fresh buffer. The system was thermostated at 310.15 ± 0.1 K. A probe of 0.5 mL was withdrawn every 30 min from the receptor chamber and replaced with an equal amount of the respective fresh buffer. The permeation process followed the reverse dialysis. The withdrawn samples were analyzed in 96-well UV black plate (Costar) via spectrophotometer (Spectramax 190; Molecular devices, Molecular Devices Corporation, California, CA, USA) at the appropriate wavelength. The permeation profiles were plotted as the amount of the permeated drug over the surface area ( dQ/A ) versus the time ( t ). The flux ( J ) was calculated as a slope of permeation profiles according to the equation:(6) J=dQ/A×dt\nThe apparent permeability coefficient ( Papp ) was calculated by normalizing the flux measured over the concentration of the drug in the donor compartment ( C0 ), as described by the equation:(7) Papp=J/Co\nEach permeability experiment was repeated at least 3 times and the average value of Papp was determined."}}}
{"smiles": "O=C1S/C(=C\\c2ccc(Cl)cc2)C(=O)N1CC(O)CN1CCN(CC(O)(Cn2cncn2)c2ccc(F)cc2F)CC1", "note": "(stereo not shown) [RS-186, (Z)-5-(4-chlorobenzylidene)-3-(3-(4-(2-(2,4-difluorophenyl)-2-hydroxy-3-(1H-1,2,4-triazol-1-yl)propyl)piperazin-1-yl)-2-hydroxypropyl)thiazolidine-2,4-dione]", "values": [{"measurement": "effect of CD on the solubility (enhancement)", "setting": "[1]; acidic buffer, 298.15 K", "result": 28, "unit": "fold"}, {"measurement": "effect of CD on the solubility (enhancement)", "setting": "[1]; buffer pH 7.4, 298.15 K", "result": 148, "unit": "fold"}, {"measurement": "Experimental solubility (S2)", "setting": "[1]; pH 2.0, 298.15 K, 2-HP-β-CD 0 M, S2 10^3/M", "result": "0.50 ± 0.01 10^3/M"}, {"measurement": "Experimental solubility (S2)", "setting": "[1]; pH 2.0, 298.15 K, 2-HP-β-CD 0.01 M, S2 10^3/M", "result": "3.37 ± 0.08 10^3/M"}, {"measurement": "Experimental solubility (S2)", "setting": "[1]; pH 2.0, 298.15 K, 2-HP-β-CD 0.03 M, S2 10^3/M", "result": "8.10 ± 0.22 10^3/M"}, {"measurement": "Experimental solubility (S2)", "setting": "[1]; pH 2.0, 298.15 K, 2-HP-β-CD 0.04 M, S2 10^3/M", "result": "10.90 ± 0.31 10^3/M"}, {"measurement": "Experimental solubility (S2)", "setting": "[1]; pH 2.0, 298.15 K, 2-HP-β-CD 0.05 M, S2 10^3/M", "result": "13.80 ± 0.40 10^3/M"}, {"measurement": "Experimental solubility (S2)", "setting": "[1]; pH 2.0, 303.15 K, 2-HP-β-CD 0 M, S2 10^3/M", "result": "0.54 ± 0.01 10^3/M"}, {"measurement": "Experimental solubility (S2)", "setting": "[1]; pH 2.0, 303.15 K, 2-HP-β-CD 0.01 M, S2 10^3/M", "result": "3.40 ± 0.04 10^3/M"}, {"measurement": "Experimental solubility (S2)", "setting": "[1]; pH 2.0, 303.15 K, 2-HP-β-CD 0.03 M, S2 10^3/M", "result": "8.37 ± 0.18 10^3/M"}, {"measurement": "Experimental solubility (S2)", "setting": "[1]; pH 2.0, 303.15 K, 2-HP-β-CD 0.04 M, S2 10^3/M", "result": "11.20 ± 0.19 10^3/M"}, {"measurement": "Experimental solubility (S2)", "setting": "[1]; pH 2.0, 303.15 K, 2-HP-β-CD 0.05 M, S2 10^3/M", "result": "14.20 ± 0.22 10^3/M"}, {"measurement": "Experimental solubility (S2)", "setting": "[1]; pH 2.0, 310.15 K, 2-HP-β-CD 0 M, S2 10^3/M", "result": "0.61 ± 0.02 10^3/M"}, {"measurement": "Experimental solubility (S2)", "setting": "[1]; pH 2.0, 310.15 K, 2-HP-β-CD 0.01 M, S2 10^3/M", "result": "3.64 ± 0.04 10^3/M"}, {"measurement": "Experimental solubility (S2)", "setting": "[1]; pH 2.0, 310.15 K, 2-HP-β-CD 0.03 M, S2 10^3/M", "result": "8.68 ± 0.19 10^3/M"}, {"measurement": "Experimental solubility (S2)", "setting": "[1]; pH 2.0, 310.15 K, 2-HP-β-CD 0.04 M, S2 10^3/M", "result": "11.79 ± 0.33 10^3/M"}, {"measurement": "Experimental solubility (S2)", "setting": "[1]; pH 2.0, 310.15 K, 2-HP-β-CD 0.05 M, S2 10^3/M", "result": "14.88 ± 0.24 10^3/M"}, {"measurement": "Experimental solubility (S2)", "setting": "[1]; pH 2.0, 313.15 K, 2-HP-β-CD 0 M, S2 10^3/M", "result": "0.69 ± 0.02 10^3/M"}, {"measurement": "Experimental solubility (S2)", "setting": "[1]; pH 2.0, 313.15 K, 2-HP-β-CD 0.01 M, S2 10^3/M", "result": "3.97 ± 0.03 10^3/M"}, {"measurement": "Experimental solubility (S2)", "setting": "[1]; pH 2.0, 313.15 K, 2-HP-β-CD 0.03 M, S2 10^3/M", "result": "9.30 ± 0.31 10^3/M"}, {"measurement": "Experimental solubility (S2)", "setting": "[1]; pH 2.0, 313.15 K, 2-HP-β-CD 0.04 M, S2 10^3/M", "result": "12.90 ± 0.33 10^3/M"}, {"measurement": "Experimental solubility (S2)", "setting": "[1]; pH 2.0, 313.15 K, 2-HP-β-CD 0.05 M, S2 10^3/M", "result": "15.90 ± 0.40 10^3/M"}, {"measurement": "order of the solubility", "setting": "[1]; pH 2.0", "result": "(FCZ) > (RS-186 ≥ R-98) > (L-173)"}, {"measurement": "solubility in pure buffer solution", "setting": "[1]; pH 2.0", "result": 500, "unit": "µM"}, {"measurement": "solubility of RS-186 greater than R-98", "setting": "[1]; pH 7.4", "result": 1.5, "unit": "fold"}, {"measurement": "Experimental solubility (S2)", "setting": "[1]; pH 7.4, 298.15 K, 2-HP-β-CD 0 M, S2 10^4/M", "result": "0.27 ± 0.01 10^4/M"}, {"measurement": "Experimental solubility (S2)", "setting": "[1]; pH 7.4, 298.15 K, 2-HP-β-CD 0.01 M, S2 10^4/M", "result": "3.15 ± 0.02 10^4/M"}, {"measurement": "Experimental solubility (S2)", "setting": "[1]; pH 7.4, 298.15 K, 2-HP-β-CD 0.03 M, S2 10^4/M", "result": "20.00 ± 0.32 10^4/M"}, {"measurement": "Experimental solubility (S2)", "setting": "[1]; pH 7.4, 298.15 K, 2-HP-β-CD 0.04 M, S2 10^4/M", "result": "30.70 ± 0.51 10^4/M"}, {"measurement": "Experimental solubility (S2)", "setting": "[1]; pH 7.4, 298.15 K, 2-HP-β-CD 0.05 M, S2 10^4/M", "result": "40.20 ± 0.58 10^4/M"}, {"measurement": "Experimental solubility (S2)", "setting": "[1]; pH 7.4, 303.15 K, 2-HP-β-CD 0 M, S2 10^4/M", "result": "0.30 ± 0.01 10^4/M"}, {"measurement": "Experimental solubility (S2)", "setting": "[1]; pH 7.4, 303.15 K, 2-HP-β-CD 0.01 M, S2 10^4/M", "result": "2.74 ± 0.03 10^4/M"}, {"measurement": "Experimental solubility (S2)", "setting": "[1]; pH 7.4, 303.15 K, 2-HP-β-CD 0.03 M, S2 10^4/M", "result": "10.60 ± 0.33 10^4/M"}, {"measurement": "Experimental solubility (S2)", "setting": "[1]; pH 7.4, 303.15 K, 2-HP-β-CD 0.04 M, S2 10^4/M", "result": "15.60 ± 0.41 10^4/M"}, {"measurement": "Experimental solubility (S2)", "setting": "[1]; pH 7.4, 303.15 K, 2-HP-β-CD 0.05 M, S2 10^4/M", "result": "20.10 ± 0.21 10^4/M"}, {"measurement": "Experimental solubility (S2)", "setting": "[1]; pH 7.4, 310.15 K, 2-HP-β-CD 0 M, S2 10^4/M", "result": "0.35 ± 0.01 10^4/M"}, {"measurement": "Experimental solubility (S2)", "setting": "[1]; pH 7.4, 310.15 K, 2-HP-β-CD 0.01 M, S2 10^4/M", "result": "1.93 ± 0.03 10^4/M"}, {"measurement": "Experimental solubility (S2)", "setting": "[1]; pH 7.4, 310.15 K, 2-HP-β-CD 0.03 M, S2 10^4/M", "result": "5.01 ± 0.05 10^4/M"}, {"measurement": "Experimental solubility (S2)", "setting": "[1]; pH 7.4, 310.15 K, 2-HP-β-CD 0.04 M, S2 10^4/M", "result": "6.97 ± 0.08 10^4/M"}, {"measurement": "Experimental solubility (S2)", "setting": "[1]; pH 7.4, 310.15 K, 2-HP-β-CD 0.05 M, S2 10^4/M", "result": "8.58 ± 0.08 10^4/M"}, {"measurement": "Experimental solubility (S2)", "setting": "[1]; pH 7.4, 313.15 K, 2-HP-β-CD 0 M, S2 10^4/M", "result": "0.37 ± 0.01 10^4/M"}, {"measurement": "Experimental solubility (S2)", "setting": "[1]; pH 7.4, 313.15 K, 2-HP-β-CD 0.01 M, S2 10^4/M", "result": "1.37 ± 0.06 10^4/M"}, {"measurement": "Experimental solubility (S2)", "setting": "[1]; pH 7.4, 313.15 K, 2-HP-β-CD 0.03 M, S2 10^4/M", "result": "2.50 ± 0.03 10^4/M"}, {"measurement": "Experimental solubility (S2)", "setting": "[1]; pH 7.4, 313.15 K, 2-HP-β-CD 0.04 M, S2 10^4/M", "result": "3.20 ± 0.05 10^4/M"}, {"measurement": "Experimental solubility (S2)", "setting": "[1]; pH 7.4, 313.15 K, 2-HP-β-CD 0.05 M, S2 10^4/M", "result": "3.65 ± 0.05 10^4/M"}, {"measurement": "order of the solubility", "setting": "[1]; pH 7.4", "result": "(FCZ) > (R-98 ≥ RS-186) >> (L-173)"}, {"measurement": "solubility in pure buffer solution", "setting": "[1]; pH 7.4", "result": 27, "unit": "µM"}, {"measurement": "permeability decrease up to 0.03 M concentration of CD in donor solution", "setting": "in vitro; buffer pH 7.4", "result": 8.89, "unit": "fold"}, {"measurement": "permeability classification (developers of PermeaPad)", "setting": "in vitro; in the presence of 0.01 M CD", "result": "low"}, {"measurement": "permeability reduction up to 0.03 M concentration of CD in donor solution", "setting": "in vitro; pH 2.0", "result": 8.72, "unit": "fold"}, {"measurement": "Permeability Coefficient (Papp)", "setting": "in vitro; pH 2.0, CD 0.01087 M, 310.15 K", "result": "(1.12 ± 0.09) × 10^−6 cm·s^−1"}, {"measurement": "permeability classification (developers of PermeaPad)", "setting": "in vitro; pure buffers, classification of ref 18", "result": "medium permeable"}]}
